Data as given in paper PMC10552892, “Ebselen oxide and derivatives are new allosteric HER2 inhibitors for HER2‐positive cancers” (Molecular Oncology, 2023).
Read-outs that look alike come from different tables or passages of the source.

Tests used:
[1] = target: T1, HER2 in heterodimers with EGFR/HER1 (Homo sapiens, UniProt P04626); experiment: Ligand-dependent HER2 activation in HBMECs upon EGF stimulation (western blot); type: cell-based; conditions: 10 μM, 50 ng/ml EGF 5 min
T1 construct: in noncancer cells expressing normal levels of HER2; endogenous in cells; host or cells: HBMEC

[2] = target: T2, JMHER2/FERME interaction (biot-JMHER2 peptide and GST-FERME, N-terminal FERM domain of ezrin) (Homo sapiens, UniProt P04626); experiment: AlphaScreen competition of HER2 juxtamembrane peptide / ezrin FERM domain interaction; type: binding; conditions: AlphaScreen, 20 h
T2 construct: purchased Proteogenix
Experimental: Biotinylated peptide derived from HER2 cytosolic juxtamembrane region (JMHER2, […] ) has been synthesized by Proteogenix (Schiltigheim, France). The binding reaction was described previously. Briefly, white 384‐well Optiplates (PerkinElmer, Whalham, MA, USA) were used to prepare GST‐FERME and biotinylated peptide in a binding buffer (PBS, pH 7.4, 5 mM MgCl2, and 0.02% CHAPS). GST‐FERME was incubated with biotinylated‐HER2 for 30 min at room temperature. AlphaScreen® Streptavidin Donor beads (20 μg·mL^−1) and Glutathione AlphaLISA® Acceptor Beads (20 μg·mL^−1) were added to the wells for overnight incubation in the dark and at room temperature. Light signal was detected with the EnVision® multilabel plate reader (PerkinElmer).
Ebselen came out as an interesting hit. Ebselen is a synthetic organoselenium compound with the anti‐inflammatory and antioxidant property that has been evaluated in clinical trials for ischemic stroke and acute hearing loss. However, in vivo, ebselen rapidly reacts with peroxynitrite to form ebselen oxide. […] In addition, using surface plasmon resonance (SPR), we confirmed that both compounds could directly bind to JMHER2 (Fig. 1E,F). […] The slight decrease in HER2 expression was not significant. To examine whether HER2 inhibition by ebselen oxide was dependent on JMHER2/FERME interaction, we transfected HBMEC cells with a previously described glycoprotein D‐tagged HER2 form mutated on the critical amino acids involved in ERM binding (gD‐HER2‐EBM*).

[3] = test system: MDA-MB-231; experiment: MTT proliferation assay, MDA-MB-231; type: cell-based, human; conditions: 10 μM
Experimental: (§1) Fig. 2 Ebselen oxide inhibits HER2 activation, cell proliferation, and anchorage‐independent growth of HER2^+ breast cancer cells. […] Blot and quantification of a representative experiment are shown out of 4 (A), 5 (B), or 2 (C) independent experiments. (D–F) Proliferation curves of HER2‐positive (SKBR3, D or BT474, E) or HER2‐negative (MDA‐MB‐231, F) breast cancer cell lines treated with vehicle or 10 μM ebselen oxide assessed by MTT assay. […] (G–I) Anchorage‐independent growth of SKBR3 (G), BT474 (H), or MDA‐MB‐231 (I) cells treated with vehicle or 10 μM ebselen oxide. […] Scale bars are […].

[4] = target: T3, HER2 in heterodimers with HER3 (Homo sapiens, UniProt P04626); experiment: Ligand-dependent HER2 activation in HBMECs upon HRG stimulation (western blot); type: cell-based; conditions: 10 μM, 100 ng/ml Heregulin-1β 5 min
T3 construct: in noncancer cells expressing normal levels of HER2; endogenous in cells; host or cells: HBMEC

[5] = test system: HBMECs transfected with pRK5 empty vector; experiment: Proliferation of HBMECs transfected with pRK5 empty vector (Incucyte); conditions: 5 μM, Incucyte 5 days
Experimental: (§2) 25.10^3 cells/96‐well transfected HBMECs or 9.10^3 cancer cells were seeded and monitored with an Incucyte S3 imaging system (Sartorius, Goettingen, Germany) using 10× objective every 2 h during 5 days. Confluency analyses were performed using the dedicated Incucyte analysis system.
Proliferation was assessed by Incucyte during 5 days.
Representative quantification of the proliferation (B) is shown where data are mean ± sem (n=8-12).
vehicle, 5-10 µM Ebselen oxide or 5 µM AG1478.

[6] = test system: gD-HER2-EBM*; experiment: Western blot of HBMECs overexpressing ERM-binding-motif mutant gD-HER2-EBM*; conditions: 5 μM, 24 h, HBMEC
Experimental: Cells were washed with cold PBS and lysed in a buffer containing 1% Triton, 50 mM Tris–HCl pH 8.8, 25 mM NaCl, 1 mM EDTA, 1 mM Na3VO4, 1 mM AEBSF, 10 μg·mL^−1 each of aprotinin/leupeptin/pepstatin or lysed in Laemmli buffer. Proteins were separated by SDS/PAGE and transferred to nitrocellulose (Schleicher & Schuell, Keene, NH, USA). Membranes were blocked for 1 h in TBS/0.1% Tween20/3% BSA and probed overnight with indicated antibodies. Peroxidase‐coupled secondary antibodies were used to reveal antibody binding using the ECL substrate (Pierce, Thermo Fisher Scientific, Waltham, MA, USA) and Fusion FX (Vilber Lourmat, Collégien, France) chemoluminescence acquisition system. Quantifications were done with IMAGEJ software (1.53e) (NIH, USA).
(G, H) Lysates from HBMECs transfected with vectors encoding gD‐tagged wild‐type HER2 (gD‐HER2‐WT) (G) or the mutant generated with alanine and glycine substitutions within the ERM‐binding motif (gD‐HER2‐EBM*) (H) and treated or not during 24 h with 5 μM ebselen oxide were analyzed by western blot using antibodies against activated HER2 (pY1248), HER2, activated ERK (pERK), and ERK. Representative blots and quantification of data are shown where data are mean ± sem [n = 3 (G); n = 2 (H)].

[7] = test system: SKOV3; experiment: Proliferation of SKOV3 cells; type: cell-based, human; conditions: ebselen oxide 7–10 μM, AG1478 5 μM
[8] = test system: SKBR3; experiment: Incucyte proliferation, single agents and combinations, SKBR3; type: cell-based; conditions: Homo sapiens, SK-BR-3, 96 h; read-out: Reduction/inhibition of cell proliferation
Experimental: (A–C) Proliferation curves of HER2‐positive (SKBR3, A; BT474, B; NCI‐N87, C) cancer cell lines treated or not with ebselen oxide (10 μM), lapatinib (10–1000 nM), or combination of these agents, as indicated. Proliferation was assessed overtime by Incucyte during 4 days. Data are mean ± SD (n = 8–12) of a representative experiment out of 4 (A), 3 (B), or 2 (C) independent experiments. […] Proliferation was assessed by Incucyte during 4 days. […] Scale bars are […].

[9] = target: T4, JMHER2 (peptide derived from the cytosolic juxtamembrane sequence of HER2) (Homo sapiens, UniProt P04626); experiment: Surface plasmon resonance binding to immobilized HER2 juxtamembrane peptide; conditions: analyte 5 or 10 μM, 60 s injection
T4 construct: purchased Proteogenix
Experimental: Interaction was performed on a BIAcore T200 instrument BIAcore (Cytiva Life Sciences, Marlborough, MA, USA); GE Healthcare (Little Chalfont, UK). […] Ebselen or ebselen oxide was used as an analyte and injected at 5 or 10 μM at a flow rate of 25 μL·min^−1 for 60 s.

[10] = target: T5, HER2 (pY1248) in SKBR3 (Homo sapiens, UniProt P04626); experiment: HER2 activation (pY1248-HER2) in SKBR3 cells, western/dot blot; type: cell-based; set-up: Inhibition of HER2 activation / HER2 inhibition, %: concentration or dose not given beside the values
T5 construct: host or cells: SKBR3

[11] = test system: MDA-MB-231; experiment: Soft agar anchorage-independent growth, MDA-MB-231; type: cell-based, human; conditions: 10 μM
Experimental: A bottom layer of 0.8% agarose in DMEM supplemented with 20% FBS and penicillin/streptomycin was added to 24‐well plates before seeding 25.10^3 cells per well in a 0.6% agarose top layer. Cells were treated with a vehicle or with 10 μM ebselen oxide or derivatives. Treatments were renewed 3 times a week. After 6 weeks, colonies were visualized with a phase‐contrast microscope and their number and size were quantified using IMAGEJ software.
as §1

[12] = test system: BT474; experiment: MTT proliferation assay, BT474; type: cell-based, human; conditions: 10 μM
Experimental: as §1

[13] = test system: NCI-N87; experiment: Anchorage-independent growth (spheroid assay, ULA plates), NCI-N87; type: cell-based, human; conditions: ebselen oxide 10 μM, lapatinib 10 nM, trastuzumab 10 μg·mL−1, alone or combined
Experimental: 5.10^3 cells/24‐well were seeded in a complete medium in ULA plates (Corning® Costar® (Corning, NY, USA) C LS3473‐24EA) in the presence of indicated compounds. Spheroids were imaged 6–8 days later with a phase‐contrast microscope, and their areas were measured using IMAGEJ software.
Proliferation was assessed overtime by Incucyte during 4 days. Data are mean ± SD (n = 8–12) of a representative experiment out of 4 (A), 3 (B), or 2 (C) independent experiments. One‐way ANOVA followed by Sidak multiple comparison test, (*, compared with Vehicle; ° and #, respectively, compared with lapatinib 10 and 1000 nM) ***P < 0.001, ****P < 0.0001. […] Proliferation was assessed by Incucyte during 4 days. Data are mean ± SD (n = 8–12) of a representative experiment out of two independent experiments. […] Images of a representative experiment out of 3 (G) or 4 (H) independent experiments and quantification of the colony total area are shown where data are mean ± SEM. One‐way ANOVA followed by multiple comparison test, *P < 0.05, **P < 0.01. Scale bars are 100 μM.

[14] = test system: HBMECs overexpressing p95 HER2; experiment: Proliferation of HBMECs overexpressing p95 HER2 (Incucyte); conditions: 5 μM, Incucyte 5 days
Experimental: as §2
(D–F) Proliferation was assessed by Incucyte during 5 days. Data are mean ± SEM of a representative experiment out of two independent experiments. Two‐way ANOVA followed by Bonferroni's multiple comparison test, ***P < 0.001, ****P < 0.0001.
(A-B) HBMECs transfected with empty vector (pRK5) or vectors encoding gD-HER2 WT, the truncated gD-
Proliferation was assessed by Incucyte during 5 days. Representative micrographs are shown (A).
Representative quantification of the proliferation (B) is shown where data are mean ± sem (n=8-12). Two-way
ANOVA followed byBonferroni’s multiple comparison test, *** P<0.001, **** P<0.0001. Scale bars are 100 µM.
vehicle, 5-10 µM Ebselen oxide or 5 µM AG1478. Proliferation was assessed by MTT assay during 3 days.
Data are mean ± sem (n=3). Two-way ANOVA followed by Bonferroni’s multiple comparison test, * P<0.05 **

T5 sequence (P04626 23-1255): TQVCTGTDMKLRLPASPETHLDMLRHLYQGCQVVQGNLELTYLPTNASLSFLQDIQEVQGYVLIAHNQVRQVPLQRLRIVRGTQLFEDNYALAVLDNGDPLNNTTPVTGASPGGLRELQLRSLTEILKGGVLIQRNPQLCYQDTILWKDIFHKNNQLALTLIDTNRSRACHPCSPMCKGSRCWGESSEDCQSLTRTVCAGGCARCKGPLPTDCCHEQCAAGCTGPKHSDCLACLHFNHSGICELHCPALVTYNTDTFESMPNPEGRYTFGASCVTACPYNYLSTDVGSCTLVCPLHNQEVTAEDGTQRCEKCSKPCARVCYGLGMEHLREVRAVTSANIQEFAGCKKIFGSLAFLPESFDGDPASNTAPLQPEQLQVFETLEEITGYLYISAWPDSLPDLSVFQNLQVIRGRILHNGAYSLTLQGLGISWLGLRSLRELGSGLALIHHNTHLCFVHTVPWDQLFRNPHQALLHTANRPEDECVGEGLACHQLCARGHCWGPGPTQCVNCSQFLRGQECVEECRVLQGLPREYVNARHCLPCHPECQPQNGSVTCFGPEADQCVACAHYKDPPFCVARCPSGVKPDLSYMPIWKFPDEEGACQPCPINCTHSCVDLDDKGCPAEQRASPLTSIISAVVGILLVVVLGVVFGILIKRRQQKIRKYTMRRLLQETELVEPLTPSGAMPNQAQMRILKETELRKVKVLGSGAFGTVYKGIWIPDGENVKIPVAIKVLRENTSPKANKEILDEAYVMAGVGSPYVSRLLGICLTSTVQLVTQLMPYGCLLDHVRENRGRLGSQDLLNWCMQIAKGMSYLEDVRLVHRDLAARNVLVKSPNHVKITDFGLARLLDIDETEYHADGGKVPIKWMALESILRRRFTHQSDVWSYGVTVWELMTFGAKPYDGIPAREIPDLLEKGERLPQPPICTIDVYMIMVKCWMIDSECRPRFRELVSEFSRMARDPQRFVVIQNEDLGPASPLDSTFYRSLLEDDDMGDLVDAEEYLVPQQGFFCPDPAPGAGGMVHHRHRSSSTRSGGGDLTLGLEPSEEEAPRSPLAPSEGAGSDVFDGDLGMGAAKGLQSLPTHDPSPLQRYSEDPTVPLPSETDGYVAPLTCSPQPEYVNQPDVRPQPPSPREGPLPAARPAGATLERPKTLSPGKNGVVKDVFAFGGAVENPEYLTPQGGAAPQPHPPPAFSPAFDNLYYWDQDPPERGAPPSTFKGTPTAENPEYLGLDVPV
T3 sequence (P04626 23-1255, one chain of several): as the sequence (P04626 23-1255) above
T1 sequence (P04626 23-1255, one chain of several): as the sequence (P04626 23-1255) above

`O=C1c2ccccc2[Se](=O)N1c1ccccc1` (stereo not drawn) [Ebselen oxide, ebselen oxide] was tested, and the “Physiological activation of HER2 in heterodimers and downstream AKT and ERK activation upon EGF” value [1] was “did not alter”, the IC50 [2] was 0.634 µM and the EC50 ([2]; read-out: EC50, μM (inhibition of HER2-FERME interaction)) was 0.634 µM. The “Effect on proliferation rate” value [3] was “did not reduce”, the “Physiological activation of HER2 in heterodimers and downstream AKT and ERK activation upon HRG” value [4] was “did not alter” and the “Effect on proliferation of cells transfected with pRK5 empty vector” value [5] was “did not affect”. The “Downstream activation of ERK induced by gD-HER2-EBM* overexpression” value [6] was “did not reduce”, the “Phosphorylation of gD-HER2-EBM*” value [6] was “did not reduce” and the “Effect on proliferation” value [7] was “reduced proliferation”. The inhibition at 10 µM [8] was 64%, the “Direct binding to JMHER2 (SPR)” value [9] was “directly bind” and the “Inhibition of HER2 activation” value ([10]; SKBR3, 24 h) was 66%. The EC50 ([10]; SKBR3, 24 h, read-out: EC50 (inhibition of HER2)) was 23.9 µM, the “Inhibition of HER2 activation” value ([10]; SKBR3, 48 h) was 64% and the “Effect on HER2 activation, single agents and combination” value ([10]; SKBR3, ebselen oxide 10 μM, lapatinib 10 nM) was “partially decreased”. The “HER2 inhibition, %” value ([10]; Table 1, HER2+ breast cancer cells (ebselen oxide value equals SKBR3 48 h)) was 64.2%, the EC50 ([10]; Table 1, HER2+ breast cancer cells (ebselen oxide value equals SKBR3 48 h), read-out: EC50, μM (HER2 inhibition)) was 26.9 µM and the “Effect on development of micro-colonies” value [11] was “no impact”. For the same compound, the “Reduction of proliferation rate” value [12] was 55%, the “Reduction of anchorage-independent growth (spheroid assay)” value [13] was 23% and the “Inhibition of cell proliferation induced by overexpression of p95 HER2” value [14] was “almost totally inhibited”.
